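Dose response: 5 concentrations. Exposure: 48 h. Format: 96-well plates. Endpoint: linear interpolation; highest concentration if not reached. GI50 = concentration required for 50% inhibition of growth. At the TGI there is no net growth.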
What was measured:
Assay in all cases: growth of human tumour cells (NCI), 48 h
SN12C renal = tested on: SN12C renal
HOP-62 NSCLC = tested on: HOP-62 NSCLC
OVCAR-5 ovarian = tested on: OVCAR-5 ovarian
HT29 colon = tested on: HT29 colon
HOP-92 NSCLC = tested on: HOP-92 NSCLC
KM12 colon = tested on: KM12 colon
OVCAR-8 ovarian = tested on: OVCAR-8 ovarian
DU-145 prostate = tested on: DU-145 prostate
COLO 205 colon = tested on: COLO 205 colon
K-562 leukemia = tested on: K-562 leukemia

| Compound | GI50 (SN12C renal) | TGI (SN12C renal) | GI50 (HOP-62 NSCLC) | TGI (HOP-62 NSCLC) | GI50 (OVCAR-5 ovarian) | TGI (OVCAR-5 ovarian) | GI50 (HT29 colon) | TGI (HT29 colon) | GI50 (HOP-92 NSCLC) | TGI (HOP-92 NSCLC) | GI50 (KM12 colon) | TGI (KM12 colon) | GI50 (OVCAR-8 ovarian) | TGI (OVCAR-8 ovarian) | GI50 (DU-145 prostate) | TGI (DU-145 prostate) | GI50 (COLO 205 colon) | TGI (COLO 205 colon) | GI50 (K-562 leukemia) | TGI (K-562 leukemia) |
| --- | --- | --- | --- | --- | --- | --- | --- | --- | --- | --- | --- | --- | --- | --- | --- | --- | --- | --- | --- | --- |
| Cc1ccc2c(Nc3cccc(Cl)c3F)ncc(NC(=O)c3csc4c(N)ncnc34)c2c1 | > 100 µM | > 100 µM | 0.359 µM | > 100 µM | 0.137 µM | > 100 µM | 0.0779 µM | > 100 µM | 0.136 µM | 1.72 µM | > 20.7 µM | > 100 µM | > 76.8 µM | > 100 µM | > 100 µM | > 100 µM | 0.0492 µM | > 100 µM | 1.5 µM | > 100 µM |
| COc1ccc(/C=C/C(=O)c2ccc3cc(OC)c(OC)cc3c2)cc1OC | 3.41 µM | 31.2 µM | 3.92 µM | 22.1 µM | 4.81 µM | > 100 µM | 2.97 µM | 9.47 µM | 1.65 µM | 6.26 µM | 2.69 µM | 7.95 µM | 2.56 µM | 7.89 µM | 4.01 µM | 15.7 µM | 4.1 µM | 13.2 µM | 3.02 µM | > 100 µM |
| COc1ccc2c(c1)sc1nc(-c3ccccc3)c(-c3ccc(O)c(OC)c3)n12 | 80.4 µM | > 100 µM | 37.8 µM | > 100 µM | 33.7 µM | > 100 µM | 3.56 µM | > 100 µM | 28 µM | > 100 µM | 4.81 µM | > 100 µM | 41.2 µM | > 100 µM | 35.4 µM | > 100 µM | 5.3 µM | 34.6 µM | 4.53 µM | > 100 µM |
| COC(=O)c1ccc2c(c1)C(=O)c1c-2n(CCCN)c(=O)c2cc([N+](=O)[O-])ccc12 | < 0.0233 µM | 1.36 µM | < 0.0161 µM | 0.532 µM | 0.139 µM | 0.661 µM | < 0.0236 µM | 0.436 µM | 0.301 µM | 1.9 µM | 0.0675 µM | 0.94 µM | < 0.0344 µM | 0.864 µM | < 0.0159 µM | 0.391 µM | 0.0737 µM | 1.69 µM | 0.0206 µM | 2.02 µM |
| NC(CSc1nc2ccccn2c1[N+](=O)[O-])C(=O)O (centres undefined) |  | > 100 µM |  | > 100 µM |  | > 100 µM |  | > 100 µM |  | > 100 µM |  | > 100 µM |  | > 100 µM |  | > 100 µM |  | > 100 µM |  | > 100 µM |
| C=CC(=O)N1CCC([C@@H]2CCNc3c(C(N)=O)c(-c4ccc(Oc5ccccc5)cc4)nn32)CC1 | 12.1 µM | 80.4 µM | 16.9 µM | > 75.1 µM | 22.2 µM | > 100 µM | 16.5 µM | > 71.1 µM | 13.6 µM | 43.7 µM | 31.5 µM | 98.9 µM | 13.8 µM | 74.2 µM | 6.82 µM | 61.3 µM | 22.1 µM | > 74.3 µM | 25.3 µM | > 100 µM |
| ICCC(c1ccccc1)(c1ccccc1)c1ccccc1 | 12.2 µM | 27.2 µM | 11.6 µM | 24 µM | 13.4 µM | 27.1 µM | 2.34 µM | 9.07 µM | 2.7 µM | 18.2 µM | 4.45 µM | 15.4 µM | 11.4 µM | 25.5 µM | 10.1 µM | 21.6 µM | 2.02 µM | 3.85 µM | 1.67 µM | 4.93 µM |
| CO[C@H]1C[C@@H]2CC[C@@H](C)[C@@](O)(O2)C(=O)C(=O)N2CCCC[C@H]2C(=O)O[C@H]([C@H](C)C[C@@H]2CC[C@@H](OP(C)(C)=O)[C@H](OC)C2)CC(=O)[C@H](C)/C=C(\C)[C@@H](O)[C@@H](OC)C(=O)[C@H](C)C[C@H](C)/C=C/C=C/C=C/1C | 11 µM | 25.8 µM | < 0.01 µM | 21.5 µM | 11.4 µM | 27.6 µM | 8.07 µM | 24 µM | 0.106 µM | 17.2 µM | 11.1 µM | 25.3 µM | < 0.01 µM | 28.8 µM | 10.4 µM | 22.4 µM | 12.7 µM | 27.7 µM | 11.7 µM | > 69.4 µM |
| N#Cc1cccc(/C=C(/C(=O)c2ccccc2)c2ccccc2)c1 | 3.85 µM | 25.9 µM | 3.99 µM | 13.5 µM | 11.9 µM | 29.1 µM | 4.23 µM | 15 µM | 2.6 µM |  | 3.31 µM | 11.6 µM | 2.97 µM | 25.5 µM | 3.36 µM | 10.2 µM | 5.3 µM | 20 µM | 3.52 µM | 23.6 µM |
| O=C(O)c1ccc(NCc2nc3cc4ccccc4cc3[nH]2)cc1 |  | > 100 µM |  | > 100 µM |  | > 100 µM |  | > 100 µM |  | > 100 µM |  | > 100 µM |  | > 100 µM |  | > 100 µM |  | > 100 µM |  | > 100 µM |
| c1ccc(-c2nnc(Nc3ccc4c(c3)OCCO4)o2)c(NCc2ccncc2)c1 | 0.0579 µM | > 64.6 µM | 0.0297 µM | 19.9 µM | 0.0904 µM | 79 µM | 0.0321 µM | 1.75 µM | 0.286 µM | 6.87 µM | 0.0327 µM | 0.435 µM | 0.0419 µM | > 42.2 µM | 0.0363 µM | 0.566 µM | 0.0286 µM | 0.076 µM | < 0.01 µM | 4.43 µM |
| S=C=NCc1ccccc1 |  | > 36.8 µM |  | 11.7 µM |  | 29.8 µM |  | > 31.3 µM |  | 17 µM |  | 15.8 µM |  | 9.31 µM |  | > 41.2 µM |  | 4.78 µM |  | > 19.9 µM |
| CN1CCN(Cc2ccc(NC(=O)c3nc4ccc5[nH]ncc5c4c4c3CCC4)cc2C(F)(F)F)CC1 | 0.873 µM | 1.64 µM | 0.867 µM | 1.71 µM | 0.994 µM | 2.41 µM | 1.02 µM | 2.08 µM | 3.53 µM | 10.6 µM | 0.957 µM | 1.91 µM | 1.05 µM | 2.22 µM | 0.944 µM | 1.76 µM | 7.27 µM | 14.7 µM | 0.978 µM | 2.39 µM |

Source: PubChem BioAssay (NCI)
